The source made the active and inactive calls. The rule behind the calls is not given here.
target: Induced myeloid leukemia cell differentiation protein Mcl-1 (Homo sapiens) (UniProt Q07820); test: blockers of Bid binding to Mcl-1 – biochemical, TR-FRET, dose response (AID 1418); conditions: Mcl-1/Bid peptide binding, TR-FRET (europium/Dy647), 2 hr
Sequence (Q07820 whole entry, looked up): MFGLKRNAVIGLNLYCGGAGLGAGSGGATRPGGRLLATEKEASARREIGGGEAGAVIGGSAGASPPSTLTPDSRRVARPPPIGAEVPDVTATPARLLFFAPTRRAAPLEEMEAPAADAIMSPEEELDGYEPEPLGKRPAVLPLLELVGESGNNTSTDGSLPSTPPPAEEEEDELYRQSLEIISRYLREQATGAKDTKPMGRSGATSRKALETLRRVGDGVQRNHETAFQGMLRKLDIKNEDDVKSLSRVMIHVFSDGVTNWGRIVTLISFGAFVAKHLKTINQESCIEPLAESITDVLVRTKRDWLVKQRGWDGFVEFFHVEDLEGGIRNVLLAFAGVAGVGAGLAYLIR

Row | Compound | IC50
1 | COc1cccc2c1c(NC(=O)Nc1ccc(F)cc1F)nn2C | > 54 µM (inactive)
2 | C=C(C(=O)c1ccccc1)C(C(=C)C(=O)c1ccccc1)c1ccc(OC)cc1 | > 54 µM (inactive)
3 | COc1ccc(Cc2nnc(NC(=O)Cc3cccs3)s2)cc1OC | > 54 µM (inactive)
4 | Cc1noc2ncnc(SCc3ccc(C(F)(F)F)cc3)c12 | > 54 µM (inactive)
5 | COc1ccc2nc(NC(=O)c3ccc(-c4cccc([N+](=O)[O-])c4)o3)sc2c1 | 0.81 µM
6 | O=C(c1ccccc1)N1CCN(Cc2ccccc2Br)CC1 | > 54 µM (inactive)
7 | Cc1ccc(C)c(OCC(=O)Nc2ccc3c(c2)OCO3)c1C | > 54 µM (inactive)
8 | Cc1cc(C)c(S(=O)(=O)/N=C2/C=C(Sc3ncn[nH]3)C(=O)c3ccccc32)cc1C | 1.19 µM
9 | O=[N+]([O-])c1ccc(/C=N/NC(=S)Nc2ccc(Cl)cc2Cl)s1 | 1.48 µM
10 | NC(=S)n1[nH]c(-c2ccc([N+](=O)[O-])cc2)c(N=Nc2cccc([N+](=O)[O-])c2)c1=O | 2.37 µM
11 | O=C(Cc1c(Cl)cccc1Cl)OCC(=O)N1CCc2ccccc2C1 | > 54 µM (inactive)
12 | O=C(N=Nc1c(O)[nH]c2ccc(Br)cc12)c1cc(-c2cccs2)nc2ccccc12 | 0.54 µM
13 | N#Cc1ccc(CO/N=C/c2ccccc2)cc1 | > 54 µM (inactive)
14 | O=C(N=Nc1c(O)[nH]c2ccc(Cl)cc12)c1cc(-c2cccs2)nc2ccccc12 | 0.57 µM
15 | O=C(Nc1ccccn1)c1ccc([N+](=O)[O-])cc1Cl | > 54 µM (inactive)
16 | NS(=O)(=O)c1ccc(CCNC(=O)C(=O)c2c[nH]c3ccccc23)cc1 | > 54 µM (inactive)
17 | O=C1NC(=S)N/C1=C/c1ccc(-c2c(Br)cc([N+](=O)[O-])cc2Br)o1 | 1.59 µM
18 | COc1cccc(CNc2nc3ccc(C)cc3n3cnnc23)c1 | > 54 µM (inactive)
19 | Cc1ccc(Nc2cc(=O)n(C3CCCCC3)c(=O)[nH]2)cc1C | > 54 µM (inactive)
20 | COc1ccc(OC)c(-n2c(N)c(C(=O)NCC3CCCO3)c3nc4ccccc4nc32)c1 (configuration not stated) | > 54 µM (inactive)
21 | CN1CCN2c3ccc(N)cc3CC3(C(=O)NC(=O)NC3=O)C2C1 (configuration not stated) | 0.48 µM
22 | N=C1S/C(=C\c2ccc(-c3cccc(Cl)c3)o2)C(=O)N1c1nccs1 | 1.05 µM
23 | Cc1ccc(-c2nc(CS(=O)CC(=O)N3CCC4(CC3)OCCO4)c(C)o2)cc1 (configuration not stated) | > 54 µM (inactive)
24 | COC(=O)c1ccc(COC(=O)c2ccc(CS(=O)(=O)c3ccc(C)cc3)cc2)cc1 | 1.3 µM
25 | Nc1c(C(=O)NCC2CCCO2)sc2nc3c(c(-c4ccco4)c12)CC/C3=C\c1ccco1 (configuration not stated) | > 54 µM (inactive)

Row | Compound | IC50
26 | CC(=O)N1CCc2cc(S(=O)(=O)NC(Cc3ccccc3)C(=O)NC3CCCCCC3)ccc21 (configuration not stated) | > 54 µM (inactive)
27 | COc1ccccc1C1C(C#N)=C(N)Oc2c1c(-c1ccccc1)nn2-c1ccccc1 (configuration not stated) | > 54 µM (inactive)
28 | O=S(=O)(c1cccc(-c2nnc(SC(F)F)n2-c2ccccc2)c1)N1CCCCC1 | > 54 µM (inactive)
29 | O=C(CSc1nnc(SCc2cccc3ccccc23)s1)N=Nc1c(O)[nH]c2ccccc12 | 3.51 µM
30 | COc1ccc(C(=O)Nc2nc3cc(OC)c(OC)cc3c(=O)[nH]2)cc1 | > 54 µM (inactive)
31 | C[N+](C)(C)c1ccc(/C=N/Nc2nc(Cl)c(C#N)c(Cl)c2Cl)cc1 | > 54 µM (inactive)
32 | COc1cccc(OC)c1C(=O)Nc1ccccc1C(=O)N1CCOCC1 | > 54 µM (inactive)
33 | CCc1ccc2c(CN(CC)Cc3nc4ccccc4c(=O)[nH]3)cc(=O)oc2c1 | > 54 µM (inactive)
34 | Cc1cc(-c2nc3c4c5c(sc4[nH]c(=O)n3n2)CCC5)c(C)o1 | > 54 µM (inactive)
35 | COc1cc(NC(=O)COc2ccccc2)c(OC)cc1NC(C)=O | > 54 µM (inactive)
36 | N=C1/C(=C\c2ccc(-c3ccc(C(=O)O)cc3)o2)C(=O)N=C2SC=C(c3ccccc3)N12 | 2.76 µM
37 | Nc1ccccc1Nc1ccccc1 | > 54 µM (inactive)
38 | CN(c1cccc(NC(=O)c2ccccc2N(C)S(C)(=O)=O)c1)S(C)(=O)=O | > 54 µM (inactive)
39 | Cc1c(NC(=S)NC(NC(=O)C(C)C)C(Cl)(Cl)Cl)c(=O)n(-c2ccccc2)n1C (configuration not stated) | > 54 µM (inactive)
40 | COCC(=O)Nc1ncc(S(=O)(=O)c2ccc([N+](=O)[O-])cc2)s1 | > 54 µM (inactive)
41 | O=C(CC(C(=O)O)c1c[nH]c2ccccc12)c1ccccc1 (configuration not stated) | > 54 µM (inactive)
42 | CC1CCC(C(C)C)C(OC(=O)C[n+]2cc(-c3ccc(Cl)cc3)n3c2CCC3)C1 (configuration not stated) | > 54 µM (inactive)
43 | CCOC(=O)c1nc(C)sc1-c1ccnn1S(=O)(=O)c1ccc(C)cc1 | > 54 µM (inactive)
44 | CCN(CC)CCNC(=O)/C(=C/c1cn(C)c2ccccc12)NC(=O)c1ccc(OC)c(OC)c1 | > 54 µM (inactive)
45 | COc1cc2nc(N3CCN(C(=O)c4ccco4)CC3)nc(N)c2cc1OC | > 54 µM (inactive)
46 | O=C(Nc1ccc(S(=O)(=O)Nc2ncccn2)cc1)c1ccc2ncsc2c1 | 0.86 µM
47 | CCOC(=O)C1CCCN(Cc2ccccc2OCC)C1 (configuration not stated) | > 54 µM (inactive)
48 | COc1ccc2[nH]c(=O)c(CN(C(=O)C3CCCO3)c3ccc(C)c(C)c3)cc2c1 (configuration not stated) | > 54 µM (inactive)
49 | Cc1cc(O)ccc1N/C=C(\C#N)c1nc2ccccc2o1 | > 54 µM (inactive)
50 | Cc1ccc(-c2nc(SCC(=O)Nc3ccccc3OC(F)F)c3c(C)c(C(=O)O)sc3n2)cc1 | > 54 µM (inactive)

Row | Compound | IC50
51 | Cc1cccc(N(CC(=O)NC2CCCC2)C(=O)c2cc3cc4cccc(C)c4nc3s2)c1C | > 54 µM (inactive)
52 | O=C(Oc1cccc(N2C(=O)C3C4c5ccccc5C(c5ccccc54)C3C2=O)c1)c1ccco1 (configuration not stated) | > 54 µM (inactive)
53 | Cc1ccc(NC(=O)Cn2c(O)c(N=NC(=O)c3cc4ccccc4cc3O)c3ccccc32)cc1 | 6.65 µM
54 | O=C(O)CCN1C(=O)S/C(=C\c2cccnc2)C1=O | > 54 µM (inactive)
55 | Fc1cc2nc(-c3ccncc3)[nH]c2cc1F | > 54 µM (inactive)
56 | CCc1cc(C(c2ccc(F)cc2)N2CCOCC2)c(NC(=O)c2ccccc2)s1 (configuration not stated) | > 54 µM (inactive)
57 | COc1cc(OC)cc(C(=O)N(CCCN2C(=O)c3cccc4cccc(c34)C2=O)c2cccc(OC)c2)c1 | > 54 µM (inactive)
58 | FC(F)(F)c1ccncc1-c1nnnn1-c1ccc(Cl)cc1 | > 54 µM (inactive)
59 | COc1ccc(C(=O)NCc2nnc(SCC(=O)N3CCCCC3)o2)cc1OC | > 54 µM (inactive)
60 | O=C1Nc2ccc(Br)cc2/C1=C/C(=O)c1ccc2c(c1)OCO2 | 1.93 µM
61 | CCOc1cc(C(=S)N2CCOCC2)ccc1O | > 54 µM (inactive)
62 | O=C(O)CC(NC(=O)COc1ccc(Cl)cc1Cl)C(=O)O (configuration not stated) | > 54 µM (inactive)
63 | O=c1c(CN2CCN(Cc3ccccc3)CC2)coc2ccc(Cl)cc12 | > 54 µM (inactive)
64 | O=C(O)CCN1C(=O)/C(=C/c2cn(-c3ccccc3)nc2-c2cccs2)SC1=S | 6.79 µM
65 | O=C1CSC(c2ccncc2)N1Cc1ccccc1 (configuration not stated) | > 54 µM (inactive)
66 | Cc1ccc2nc(NC(=O)c3ccc(-c4nc5ccccc5s4)s3)sc2c1 | 1.12 µM
67 | CC1CN(C(=O)c2cccc(C(=O)N3CC(C)OC(C)C3)c2)CC(C)O1 (configuration not stated) | > 54 µM (inactive)
68 | COC(=O)c1c(NC(=O)c2cnccn2)sc2c1CCC2 | > 54 µM (inactive)
69 | COc1ccc2c(=O)c3c(=O)n(CCc4ccccc4)c(C(C)C)nc3oc2c1 | > 54 µM (inactive)
70 | Cc1cccc(N=C2NC(=O)/C(=C/C=C/c3ccco3)S2)c1C | > 54 µM (inactive)
71 | Cc1n[nH]c(=S)c2nn(-c3ccccc3)c(C)c12 | > 54 µM (inactive)
72 | O=C(O)CCCCCN1C(=O)/C(=C\c2cn(-c3ccccc3)nc2-c2cccs2)SC1=S | 9.29 µM
73 | O=C(Cn1nc(C(=O)O)c2ccccc2c1=O)Nc1ccc2c(c1)C(=O)c1ccccc1C2=O | 2.93 µM
74 | COc1ccc(NC(=O)c2[nH]ncc2[N+](=O)[O-])cc1 | > 54 µM (inactive)
75 | O=C(O)c1cc(N2N=C(C(F)(F)F)/C(=C/C=C/c3ccco3)C2=O)ccc1Cl | 1.4 µM

Row | Compound | IC50
76 | O=C(O)CCC(=O)NCCC1=c2ccccc2=N/C1=C\c1c(O)n(Cc2ccc(F)cc2)c(=S)[nH]c1=O | 2.51 µM
77 | COc1ccc(/C=C2\C(=O)NC(=S)N2C(=O)c2ccc(F)cc2)cc1 | 8.97 µM
78 | CC1(C)Oc2ccc3ccc(=O)oc3c2C[C@H]1O | > 54 µM (inactive)
79 | COC(=O)c1ccc2c(=O)n(CCCCCC(=O)NCc3ccc4c(c3)OCO4)c(=O)[nH]c2c1 | inactive
80 | COc1ccc(NC(=O)Cn2nnc(-c3ccccc3NC(=O)c3ccco3)n2)cc1 | 6.22 µM
81 | COc1ccccc1NS(=O)(=O)c1cccc(NC(=O)C2CC(=O)N(Cc3ccccc3)C2)c1 (configuration not stated) | > 54 µM (inactive)
82 | CCN1C(=O)c2cccc3c(S(=O)(=O)Nc4ccccc4OC)ccc1c23 | > 54 µM (inactive)
83 | CCOC(=O)c1ccc(NS(=O)(=O)N2CCCCCC2)cc1 | > 54 µM (inactive)
84 | CCOC(=O)c1ccccc1NC(=O)c1nc2nccc(C)n2n1 | > 54 µM (inactive)
85 | Brc1ccccc1 | > 54 µM (inactive)
86 | COc1ccc(NC(=S)NNc2ccc(S(=O)(=O)Nc3ccccc3C(=O)O)cc2[N+](=O)[O-])cc1 | 22.3 µM
87 | O=C1c2ccccc2C(=O)C1Cc1cccc2ccccc12 | 8.94 µM
88 | COc1cccc(/C=N/NC(=O)c2cc3cc([N+](=O)[O-])ccc3s2)c1O | 1.58 µM
89 | CCOC(=O)c1c(C)oc2c1c(C(c1ccncc1)N1CCOCC1)c(O)c1ccccc12 (configuration not stated) | 0.87 µM
90 | CNNC(=O)C(=O)NNS(=O)(=O)c1ccccc1 | > 54 µM (inactive)
91 | CCOC(=O)N1CCN(c2nc(C)c3c(n2)CCCC3=O)CC1 | > 54 µM (inactive)
92 | O=C(CN1CCN(CCN2C(=O)c3cccc4cccc(c34)C2=O)CC1)c1ccc(F)cc1 | > 54 µM (inactive)
93 | COc1ccc(CN2CCN(c3ccccc3F)CC2)cc1O | > 54 µM (inactive)
94 | Oc1c(Cl)cc(Cl)c(Cl)c1Cc1c(O)c(Cl)cc(Cl)c1Cl | 0.86 µM
95 | NC(=S)Nc1ccc(F)cc1F | > 54 µM (inactive)
96 | Cc1ccc2oc(C(F)(F)C(F)F)cc(=O)c2c1 | inactive
97 | C#CCOCCOCCOCCNc1nc(N2CCN(C(=O)[C@H](Cc3cc4ccccc4[nH]3)n3cc([C@@H](N)C(C)CC)nn3)CC2)nc(N2CCN(C(=O)[C@H](CCCCN)n3cc([C@@H](N)CC(C)C)nn3)CC2)n1 (some centres not stated) | 16.9 µM

From PubChem BioAssay AID1418 (Emory University Molecular Libraries Screening Center, 2008)
